Experimental data published in patent publication US20220226329A1, “METHOD TO INDUCE HEMATOPOIETIC CHIMERISM” (The General Hospital Corporation, priority 2019, published 2022).
Where “and” joins values, the source holds several entries; their conditions need not be identical. Equal entries are not always repeated. Entries after “also recorded” stand apart in the source; their conditions may differ.

Assays:
[1] = test system: Bcl-2, Bcl-xL, Bcl-w, Mcl-1; settings: literature statements; cited from earlier work
[2] = test system: hematopoietic stem cells (HSCs); assay: Drug-only study: HSC deletion in bone marrow (flow cytometry) and total CFU assay; assay type: in vivo, cynomolgus macaques; settings: S63845 5 mg/kg x 5 alone
Source text: In certain embodiments, the deletion of CD34^+ cells of the bone marrow can be determined using flow cytometry and comparing the amount of CD34^+ cells of the bone marrow to pre-treatment levels. The reduction in total colony forming units can be measured by a CFU assay and comparing the CFUs to pre-treatment levels.

[3] = test system: BAX (the BCL-2-associated X protein); assay: Intrinsic apoptosis: expression of BAX and other apoptotic markers in peripheral lymphocytes (flow cytometry, CyTOF); assay type: in vivo, Cynomolgus monkeys; settings: 10 mg/kg x 11 (day -4 to +6), TBI 1.5 Gy regimen, n=3
Experimental: To examine intrinsic apoptosis induced by ABT-199, expression of BAX (the BCL-2-associated X protein), which is pro-apoptotic protein that plays an important role in the mitochondria-dependent apoptotic pathway was assessed.
Flow cytometric and CyTOF analyses: Peripheral blood mononuclear cells (PBMCs) were labeled with a combination of the following mAbs: CD3 (SP34-2), CD4 (L200), CD8 (SK1), CD21 (B-ly4), CD27 (M-T271), CD28 (CD28.2), CD95 (DX2), and IgM (G20-127) (BD Pharmingen, San Jose, Calif.), CD20 (2H7) (Biolegend, Inc., San Diego, Calif.) and FOXP3 (236A/E7) (eBioscience, Inc., San Diego, Calif.). The fluorescence of the stained samples was analyzed using FACSverse (BD Biosciences, San Jose, Calif.) and Accuri flow cytometers (BD PharMingen), and FlowJo software (Tree Star, Inc., Ashland, Oreg.). A CyTOF panel for cynomolgus monkeys was designed. The CyTOF panel consisted of antibodies against various NHP leukocyte markers including CD3, CD4, CD8, Foxp3, CD127, CTLA4, Ki-67, CD95, CD20, CD21, CD27, CD38, CD123, CD31, CD11c, CD25, HLA-DR, CD45RA, CD159 (NKG2a), Granzyme B, Caspase 3/7/9, Bax and Cytochrom C.

[4] = Blood counts (CBC: white blood cells, neutrophils, platelets, HCT) after conditioning and transplantation; assay type: in vivo, Cynomolgus monkeys
Experimental: (§1) Combined kidney and bone marrow transplantation (CKBMT): All recipients were conditioned with total body irradiation (TBI) (1.5 Gy on day −5, relative to the day of CKBMT), local thymic irradiation (TI) (7 Gy on day −1) and equine-derived anti-thymocyte globulin (hATG) (Atgam; Pharmacia and Upjohn, Kalamazoo, Mich.; 50 mg/kg/day i.v. on days −2, −1 and 0). Following DBMT, the recipients were also treated with anti-CD154 mAb (5c8; 20 mg/kg i.v. on days 0 and 2, 7, and 12 post-DBMT). Cyclosporine A (CyA, Novartis, Basel, Switzerland) was administered intramuscular (IM) on days 0-27 post DBMT, after which no immunosuppression was administered (FIG. 6).
(§2) Statistical analyses: Statistical analysis was performed with GraphPad PRISM 7.01 (GraphPad Software, Inc, San Diego, Calif.). We used two way ANOVA to compare chimerism, CBC, and T cell subsets. Mantel-Cox log-rank test was used to analyze survival of different groups and. P values lower than 0.05 have been considered statistically significant.

Cynomolgus monkeys [5] = assay: Renal allograft survival / rejection after CKBMT without maintenance immunosuppression; assay type: in vivo; settings: per animal
Experimental: To evaluate whether Bcl-2 inhibitor (ABT-199) can promote engraftment of hematopoietic stem cells with reduced myelosuppressive therapy, monkeys were treated with various modified regimens with ABT-199 and compared with standard regimen without ABT-199. The basic conditioning regimen consisted of low dose total body irradiation (TBI), thymic irradiation (TI, 7 Gy) and peri-transplant ATG administration. […] In Groups C-E, 10 mg/kg of ABT-199 was administered for 11 days (day −4 to day 6). Animals were divided into five groups according to the treatments (Table 1).
(§3) Animals and pair selections: Cynomolgus monkeys, including donor animals, weighing 4-8 kg were used for this study (Charles River Primates, Wilmington, Mass.). Donors and recipients were paired on the basis of ABO blood type compatibility and major histocompatibility complex (MHC) mismatching. MHC characterization was performed as previously described (O'Connor, S. L., et al. 2007, Immunogenetics 59, 449-462.; Pendley, C. J., et al. 2008, Immunogenetics 60, 339-351.). All surgical procedures and postoperative care of animals were performed in accordance with National Institute of Health guidelines for the care and use of primates and were approved by the Massachusetts General Hospital Institutional Animal Care and Use Committee (IACUC).
as §1, with “Following DBMT, the recipients were also treated with anti-CD154 mAb (5c8; 20 mg/kg i.v. on days 0 and 2, 7, and 12 post-DBMT).” left out
Kidney transplantation (KTx): Monkeys underwent heterotopic KTx and nephrectomy as previously described (Cosimi, A. B., et al. 1990, Surgery 108, 406-413.).
as §2

Cynomolgus monkeys [6] = assay: Hematopoietic chimerism after combined kidney and bone marrow transplantation (CKBMT), flow cytometry of peripheral blood; assay type: in vivo; settings: recipients with chimerism/total
Experimental: To evaluate whether Bcl-2 inhibitor (ABT-199) can promote engraftment of hematopoietic stem cells with reduced myelosuppressive therapy, monkeys were treated with various modified regimens with ABT-199 and compared with standard regimen without ABT-199. The basic conditioning regimen consisted of low dose total body irradiation (TBI), thymic irradiation (TI, 7 Gy) and peri-transplant ATG administration. After combined kidney and bone marrow transplantation, the recipients were treated with anti-CD154 mAb for 2 weeks and CyA for 4 weeks, after which no immunosuppression was given (FIG. 1). In Groups C-E, 10 mg/kg of ABT-199 was administered for 11 days (day −4 to day 6). Animals were divided into five groups according to the treatments (Table 1).
as §3
Following DBMT, the recipients were also treated with anti-CD154 mAb (5c8; 20 mg/kg i.v. on days 0 and 2, 7, and 12 post-DBMT). Cyclosporine A (CyA, Novartis, Basel, Switzerland) was administered intramuscular (IM) on days 0-27 post DBMT, after which no immunosuppression was administered (FIG. 6).
Bone marrow transplantation: Donor bone marrow cells (DBMC) were obtained by multiple aspirations from the iliac crests, humerus head, and vertebral bones under general anesthesia. If the donor animal was sacrificed, DBMC were harvested from the vertebral bones after euthanasia. DBMC (1.0-3.0×10^8 mononuclear cells/kg) were infused intravenously.
Detection of hematopoietic chimerism: A monkey was selected that was either BB7.6 (HLA-B7B40) positive or a H38 (HLA-BW6) positive monkey as a donor and a monkey negative to these antibodies was selected as a recipient. In all experiments, the percentage of cells that stained with each mAb was determined from one color fluorescence histogram and compared with those obtained from donor and pretreatment frozen recipient cells, which were used as positive and negative controls. The percentage of cells considered positive was determined with a cutoff chosen as the fluorescence level at the beginning of the positive peak for the positive control stain and by subtracting the percentage of cells stained with an isotype control. By using forward and 90° light scatter (FSC and SSC, respectively) dot plots, lymphocyte (FSC- and SSC-low), granulocyte (SSC-high), and monocyte (FSC-high but SSC-low) populations were gated, and chimerism was determined separately for each population. Nonviable cells were excluded by propidium iodide (Thermo Fischer Scientific, Grand Island, N.Y.) staining.

[7] = Example 2 Group D: ABT-199 +, TBI 0 Gy, TI 7 Gy
[8] = Example 2 Group E: ABT-199 +, TBI 1.5 Gy, TI 0 Gy
[9] = Example 3 Group E: venetoclax +, TBI 1.5 Gy, TI 7 Gy, CoB Belatacept
[10] = Example 3 Group F: venetoclax +, TBI 1.5 Gy, TI 7 Gy, no CoB
[11] = Example 3 Group G: venetoclax +, TBI 1.5 Gy, TI 0 Gy, CoB aCD154
[12] = Example 3 Group H: venetoclax +, TBI 0 Gy, TI 7 Gy, CoB aCD154

For `CN(C)CC[C@H](CSc1ccccc1)Nc1ccc(S(=O)(=O)NC(=O)c2ccc(N3CCN(Cc4ccccc4-c4ccc(Cl)cc4)CC3)cc2)cc1[N+](=O)[O-]` [ABT-737], the “Selectivity among Bcl-2 family proteins” value [1] is listed as “inhibits Bcl-2, Bcl-xL and Bcl-w but not Mcl-1”.
With `Cc1c(-c2c(-c3ccc(F)o3)sc3ncnc(O[C@H](Cc4ccccc4OCc4ccnn4CC(F)(F)F)C(=O)O)c23)ccc(OCCN2CCN(C)CC2)c1Cl` [S63845] the “HSCs in BM, % of the pretreatment level” value [2] was 51% and the “total colony forming units (CFU), % of pretreatment” value [2] was 45%.
For `CC1(C)CCC(c2ccc(Cl)cc2)=C(CN2CCN(c3ccc(C(=O)NS(=O)(=O)c4ccc(N[C@H](CCN5CCOCC5)CSc5ccccc5)c(S(=O)(=O)C(F)(F)F)c4)cc3)CC2)C1` [navitoclax], the “Bax expression in T cells, B cells and NK cells compared to pre Rx levels” value [3] was “only observed with venetoclax but not with navitoclax” and the “Platelet counts (thrombocytopenia)” value ([4]; 10 mg/kg x 11, after treatment) was “prolonged thrombocytopenia”.
With `CC1(C)CCC(CN2CCN(c3ccc(C(=O)NS(=O)(=O)c4ccc(NCC5CCOCC5)c([N+](=O)[O-])c4)c(Oc4cnc5[nH]ccc5c4)c3)CC2)=C(c2ccc(Cl)cc2)C1` [venetoclax] the “Graft survival” value (Cynomolgus monkeys [5]; Example 2 Group C: ABT-199 +, TBI 1.5 Gy, TI 7 Gy) was > 316 days and > 637 days and > 301 days and > 313 days and > 361 days and > 646 days, the “Graft survival” value (Cynomolgus monkeys [5]; [7]) was 142 days and 100 days and the “Graft survival” value (Cynomolgus monkeys [5]; [8]) was 163 days and 100 days and 97 days. The “Renal Allograft Survival (days)” value (Cynomolgus monkeys [5]; Example 3 Group D: venetoclax +, TBI 1.5 Gy, TI 7 Gy, CoB aCD154) was “exceeding 1000 days”, the “Renal Allograft Survival (days)” value (Cynomolgus monkeys [5]; Example 3 Group D: venetoclax +, TBI 1.5 Gy, TI 7 Gy, CoB aCD154, listed as Venetoclax) was > 1071 days and > 735 days and > 313 days and the “Renal Allograft Survival (days)” value (Cynomolgus monkeys [5]; [9]) was > 574 days and > 308 days. The “Renal Allograft Survival (days)” value (Cynomolgus monkeys [5]; Example 3 Group E: venetoclax +, TBI 1.5 Gy, TI 7 Gy, CoB Belatacept, listed as Venetoclax) was > 574 days and > 308 days and 237 days, the “Renal Allograft Survival (days)” value (Cynomolgus monkeys [5]; [10]) was 74 days and 127 days and the “Renal Allograft Survival (days)” value (Cynomolgus monkeys [5]; [11]) was 97 days and 100 days and 163 days. The “Renal Allograft Survival (days)” value (Cynomolgus monkeys [5]; [12]) was 120 days and 142 days, the Pancytopenia / neutropenia ([4]; Example 2 Group C: ABT-199 +, TBI 1.5 Gy, TI 7 Gy, in contrast to Group A (TBI 3 Gy, no ABT-199)) was “without development of severe pancytopenia; also recorded: without neutropenia” and the “White blood cell counts, platelet counts, HCT (leukopenia, thrombocytopenia, anemia)” value ([4]; Example 3 Group D: venetoclax, TBI 1.5 Gy) was “no leukopenia, thrombocytopenia, or anemia; also recorded: stable”. The Chimerism (Cynomolgus monkeys [6]; Example 2 Group C: ABT-199 10 mg/kg x 11 days (day -4 to 6), TBI 1.5 Gy, TI 7 Gy) was 3/3, the Chimerism (Cynomolgus monkeys [6]; [7]) was 0/2 and the Chimerism (Cynomolgus monkeys [6]; [8]) was 2/2. For the same compound, the Chimerism (Cynomolgus monkeys [6]; Example 3 Group D: venetoclax 10 mg/kg x 11 IM, TBI 1.5 Gy, TI 7 Gy, CoB aCD154) was 5/5, the Chimerism (Cynomolgus monkeys [6]; [9]) was 3/3 and the Chimerism (Cynomolgus monkeys [6]; [10]) was 0/2. The Chimerism (Cynomolgus monkeys [6]; [11]) was 3/3 and the Chimerism (Cynomolgus monkeys [6]; [12]) was 0/2.
